Reference: US20090105149A1, “Compounds comprising lpa” (ENKAM PHARMACEUTICALS A/S, priority 2003, published 2009)
Marks after values point to notes of the source that are not given here.

Columns and labels:
[1] = test system: cerebellar granule neurons (CGN); experiment: Survival of CGN induced to undergo apoptosis by low KCl; details: for Neuronal Survival (% of Control): Low K+ (5 mM)
Method: Cerebella granular meurons (CGN) (e and f) from postnatal day 7 rats were grown at a density of 100,000 cells/cm^2 for 7 days on poly-L-lysine coated microtiter plates in the medium containing 40 mM KCl, then the medium was substituted to a 5 mM KCl containing medium supplemented with various concentrations of FGLd.
For the experiments cerebellar tissue was dissected in modified Krebs-Ringer solution kept on ice, and treated as described for the hippocampal neurons above. All cell cultures were incubated at 37° C. in a humidified atmosphere containing 5% CO2.
Primary cultures of CGN were plated at a density of 100,000 cells/cm^2 on poly-L-lysine coated 8-well permanox slides in Neurobasal-A medium (Gibco, BRL) supplemented with 2% (v/v) B27, 0.5% (v/v) glutamax, 100 U/ml penicillin, 100 μg/ml streptomycin and KCl, making the final concentration of KCl in the medium 40 mM. 24 hours after plating, cytosine-β-D-arabinofuranoside (Ara-C; Sigma-Aldrich) was added to a final concentration of 10 μM to avoid proliferation of glial cells, after which the neurons were allowed to differentiate for further six days at 37° C. Apoptotic cell death was induced by washing twice and changing the medium to Basal Medium Eagle (BME; Gibco BRL) supplemented with 1% (v/v) glutamine, 100 U/ml penicillin and 100 μg/ml streptomycin, 3.5 g D-glucose/l and 1% (v/v) sodium pyruvate (Gibco BRL) together with various concentrations of peptide. Thereby the concentration of potassium in the cultures was reduced to 5 mM KCl. Two days after induction of apoptosis, the cells were fixed with 4% formaldehyde and stained with Hoechst 33258 as described for the survival assay employing hippocampal neurons.

[2] = test system: dissociated hippocampal neurons; experiment: OGD, FM 1-43 release in dissociated hippocampal cell cultures; format: cell-based, rat
Source text: (§1) In the present study it was investigated the effect of the FGL peptide on synaptic plasticity, neuronal function and vulnerability following oxygen and glucose deprivation (OGD) in organotypic hippocampal neuronal slice cultures (OHSC) from 7-day-old Wistar rats according to method of Stoppini et al. (1991) Neurosci Methods. 37:173-82 and primary cultures of dissociated hippocampal neurons from 1-day-old rats according to method of Maar et al. (1997) J Neurosci Res. 47:163-72. Primary cell cultures were maintained for 11-12 days and OHSC for 12-14 days prior to adding FGLd.
(§2) The primary cell cultures and OHSC were exposed to OGD for 10 and 20 minutes. Following OGD, the cultures were again supplied with oxygen and glucose and analysed at 1, 4 or 24 hour time point after introduction of OGD exposure. FGLd (or the control peptide FGLc) was added 24 hr before, immediately, or 1 hr or 24 hr after OGD. When administered prior to OGD, FGLd was removed from the medium when introducing OGD. In some cases, the slice cultures were treated with FGLd only at 4 hr after OGD. In addition, the FGFR inhibitor, SU5402 (25 μM), was added together with FGLd in some of the set-ups.
(§3) In hippocampal neuronal cultures, FM 1-43 staining was used to evaluate pre-synaptic function (described above). Cell viability in both primary cell cultures and OHSC was measured using the […] [3-(4,5-dimethylthiazol-2-yl)-2,5-diphenyltetrazolium bromide] assay according to Malich et al, (1997) Toxicology. 124:179-92. In, addition, cell viability in OHSC was measured using propidium iodide (PI) staining according to Laake et al. (1999) Brain Res Brain Res Protoc. 4:173-84.

[3] = test system: cerebellar granule neurons (CGN); experiment: Neurite outgrowth, cerebellar granule neurons; format: cell-based, rat; details: 24 h
Method: (§4) The cultures were subsequently immunostained for tyrosine hydroxylase. Hippocampal neurons and CGN were plated at a density of 10,000 cells/cm^2 on 8-well permanox chamber slides and incubated for 24 hours in the presence of various concentrations of FGLd. Subsequently the neurons were immunostained for GAP-43. Results from at least five independent experiments for each neuronal culture are shown as percentage ±SEM with the untreated controls set at 100%. *p<0.05, **p<0.01, ***p<0.001 when compared to the controls.
(§5) Peptide solutions without or with inhibitors of various signal transduction pathways were added to a total volume of 300 μl/cm^2, and the slides were incubated at 37° C. After 24 hours, the neurons were fixed with 4% (v/v) formaldehyde for 20 minutes and thereafter immunostained using primary rabbit antibodies against GAP-43 and Alexa Fluor secondary goat anti-rabbit antibodies. Images of at least 200 neurons for each group in each individual experiment were obtained systematically by using computer assisted fluorescence microscopy as previously described (Rønn et al., 2000 op. cit.). Briefly, a Nikon Diaphot inverted microscope with a Nikon Plan 20× objective (Nikon, Tokyo, Japan) coupled to a video camera (Grundig Electronics, Germany) was used for recordings. The same software package as described above for the dopaminergic neurite outgrowth assay was used to process the recorded images.

[4] = test system: organotypic hippocampal neuronal slice cultures (OHSC); experiment: OGD, propidium iodide staining of OHSC; format: cell-based, rat
Source text: as §1, §2, §3

hippocampal neurons = experiment: Neurite outgrowth, hippocampal neurons; format: cell-based, rat; details: 24 h
Method: as §4
Results from at least four independent experiments are shown as percentage SEM with untreated controls set at 100%. **p<0.01 when compared to the controls.
as §5

Erk1/2 = experiment: PACE assay, phosphorylation of Erk1/2 in CGN; format: cell-based, rat
Method: The total number of neurons was estimated using crystal violet staining. Results from at least three independent experiments are expressed as percentage ±SEM with untreated cultures set at 100%. *p<0.05 and **p<0.01 when compared to the controls.
Detection of phosphorylated Erk1/2 and Akt relative to the total number of CGN is carried out according to Versteeg et al. (2000) FEBS Lett. 465:69-73. For the experiments CGN were plated at a density of 290,000 cells/cm^2 in poly-L-lysine coated 96-well microtiter plates. […] 24 hours after plating, Ara-C was added to the cultures as described above. After 72 hours of incubation, half of the medium was replaced with Neurobasal-A medium containing the peptide to be tested. For the Erk1/2 phosphorylation assay, the cultures were further incubated for 0-90 minutes, centrifuged at 70 g for 8 minutes, fixed with 4% (v/v) formaldehyde and immunostained using primary phospho-p42-44 rabbit antibodies and peroxidase-conjugated anti-rabbit secondary antibodies. For the detection of phosphorylated Akt, the cultures were further incubated for 10 or 30 minutes, centrifuged at 70 g for 8 minutes, fixed with 4% (v/v) formaldehyde and immunostained using polyclonal antibodies against Akt phosphorylated at Ser473 and peroxidase-conjugated secondary antibodies. […]

rat pups = experiment: Surface Righting Reflex in rat pups; format: in vivo; details: intranasal 2.6 μg per pup at PND 1, 2, 3
Method: The number of litters of each treatment group was six. […] FGLcontrol as above.
Dose-Response study. The effect of intranasal administration of 0.026, 0.26 and 2.6 μg FGLd per day at post-natal day (PND) 1, 2 and 3 on performance of the Surface Righting Reflex by rat pups was evaluated.
Sensory Motor Control Development study.

## FGLd: MAP-type dendrimer of FGL; dendrimeric tetramer of the FGL peptide (EVYVVAENQQGKSKA)
[1]; CGN (PND 3-4), 1 μg/mL
  Neuronal Survival (% of Control): 131%* % of Control
[1]; CGN (PND 3-4), 5 μg/mL
  Neuronal Survival (% of Control): 110%* % of Control
[1]; CGN (PND 3-4), 10 μg/mL
  Neuronal Survival (% of Control): 132%* % of Control
[1]; CGN (PND 3-4), 20 μg/mL
  Neuronal Survival (% of Control): 117%** % of Control
[1]; CGN (PND 7-8), 20 μg/mL
  Neuronal Survival (% of Control): 175%* % of Control
[1]; at 1-10 μg/ml, controls grown at low KCl = 100%
  maximal neuroprotection of CGN: 135%
[2]; treated 24 hours before or immediately after OGD
  rate of FM 1-43 release after OGD: the OGD-induced decrease in the rate of FM 1-43 release was diminished
[2]; treatment without OGD, control 0.04
  rate of pre-synaptic vesicle release (FM 1-43 destaining) upon high potassium stimulation: 0.06 s⁻¹
[3]; CGN PND 2-4, 9 μg/mL
  Effect on Neurite Length (Percent Increase vs. Control): 24%**
[3]; CGN PND 5-8, 3 μg/mL
  Effect on Neurite Length (Percent Increase vs. Control): 30%
[3]; CGN PND 5-8, 9 μg/mL
  Effect on Neurite Length (Percent Increase vs. Control): 93%
[3]; CGN PND 5-8, 10 μg/mL
  Effect on Neurite Length (Percent Increase vs. Control): 37%
[3]; CGN PND 5-8, 25 μg/mL
  Effect on Neurite Length (Percent Increase vs. Control): 79%
[3]; CGN PND 5-8, 27 μg/mL
  Effect on Neurite Length (Percent Increase vs. Control): 121%
[3]; CGN PND 5-8, 50 μg/mL
  Effect on Neurite Length (Percent Increase vs. Control): 179%
[3]; CGN PND 5-8, 100 μg/mL
  Effect on Neurite Length (Percent Increase vs. Control): 96%
[3]; at 50 μg/ml, untreated control = 100%
  maximal stimulation of neurite outgrowth, CGN: 255%
[4]; slices pre-treated for 24 hours
  PI staining (cell damage) after 10 minutes of OGD: almost completely abolished
[4]; treated immediately after OGD
  PI staining (cell damage) after 10 minutes of OGD: Cell damage was also avoided
[4]; treatment delayed until 4 hours after OGD
  PI staining (cell damage) after 10 minutes of OGD: not if FGLd treatment was delayed until 4 hours after OGD
Hippocampal neurons; 0.04 up to 20 μg/ml, untreated control = 100%
  neurite length, hippocampal neurons, plateau-like level: approximately 150%
Hippocampal neurons; HN E19, 3 μg/mL
  Effect on Neurite Length (Percent Increase vs. Control): 65%
Hippocampal neurons; HN E19, 9 μg/mL
  Effect on Neurite Length (Percent Increase vs. Control): 51%
Hippocampal neurons; HN E19, 27 μg/mL
  Effect on Neurite Length (Percent Increase vs. Control): 69%
Hippocampal neurons; HN Newborn, 0.04 μg/mL
  Effect on Neurite Length (Percent Increase vs. Control): 38%
Hippocampal neurons; HN Newborn, 5 μg/mL
  Effect on Neurite Length (Percent Increase vs. Control): 45%
Erk1/2; 5 μg/ml
  phosphorylation of Erk1/2: unable to induce phosphorylation of Erk1/2
Erk1/2; 10 μg/ml, from 10 to at least 90 minutes, control cultures = 100%
  phosphorylation of Erk1/2: 115-120%
Rat pups; PND4, P<0.05
  Surface Righting Reflex test, significance vs control and FGLcontrol groups: statistically significant effect
Rat pups; PND 5, vehicle 3.4
  Surface Righting Reflex performance: 1.3 s
